This note sets out measurements from patent publication EP0821956A1, “Method for treating disruptive behavior disorders” (ELI LILLY AND COMPANY, priority 1996, dated 1998).

pKi: −log10 of the molar value.

The target of one assay is D2 receptor subtype (Homo sapiens, UniProt P14416). The experiment in a line: pharmacological studies at the D2 receptor subtype.
The target in another assay is m4 receptors (Homo sapiens, UniProt P08173). The class given is cell-based. The following applies: CHO m4 cells treated with pertussis toxin.
For assay [1], the target named is ^3H-oxotremorine-M binding (muscarinic receptors). The experiment in a line: 3H-oxotremorine-M binding study. To be noted: inhibition of binding of ^3H-oxotremorine-M; read-out: inhibition constant (Ki).

D2 receptor subtype, sequence (P14416 whole entry): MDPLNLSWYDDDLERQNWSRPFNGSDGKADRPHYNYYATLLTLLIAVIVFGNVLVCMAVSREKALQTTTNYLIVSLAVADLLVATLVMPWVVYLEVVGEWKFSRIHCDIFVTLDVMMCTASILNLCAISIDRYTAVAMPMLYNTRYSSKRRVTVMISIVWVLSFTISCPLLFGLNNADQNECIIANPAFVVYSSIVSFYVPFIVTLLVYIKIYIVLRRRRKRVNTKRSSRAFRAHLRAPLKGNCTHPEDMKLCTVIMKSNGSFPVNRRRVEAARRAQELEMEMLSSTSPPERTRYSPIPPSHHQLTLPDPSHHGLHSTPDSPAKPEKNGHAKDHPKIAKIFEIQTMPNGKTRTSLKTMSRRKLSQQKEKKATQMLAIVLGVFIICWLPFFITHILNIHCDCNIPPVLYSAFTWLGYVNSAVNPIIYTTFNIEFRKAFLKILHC
m4 receptors, sequence (P08173 whole entry): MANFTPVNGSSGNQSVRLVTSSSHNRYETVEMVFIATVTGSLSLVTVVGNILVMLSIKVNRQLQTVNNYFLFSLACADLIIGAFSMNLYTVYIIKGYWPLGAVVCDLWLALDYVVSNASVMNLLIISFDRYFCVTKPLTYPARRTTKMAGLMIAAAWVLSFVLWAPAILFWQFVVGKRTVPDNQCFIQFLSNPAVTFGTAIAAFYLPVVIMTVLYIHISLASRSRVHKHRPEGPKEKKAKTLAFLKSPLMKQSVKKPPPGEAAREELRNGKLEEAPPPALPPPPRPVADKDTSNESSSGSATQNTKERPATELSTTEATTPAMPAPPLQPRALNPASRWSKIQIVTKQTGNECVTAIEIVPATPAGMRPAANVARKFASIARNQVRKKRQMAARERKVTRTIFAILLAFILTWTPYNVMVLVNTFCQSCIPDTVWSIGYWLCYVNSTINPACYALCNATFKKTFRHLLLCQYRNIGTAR

What is called pKi is the negative decadic logarithm of the Ki, by convention in mol/L. Regarding `CCCCCCOc1nsnc1C1=CCCN(C)C1` [xanomeline, 3-(4-hexyloxy-1,2,5-thiadiazol-3-yl)-1,2,5,6-tetrahydro-1-methylpyridine], on D2 receptor subtype, the “activity at the D2 receptor subtype” value is recorded as “active”. Further, on m4 receptors, the “formation of cAMP” value was “efficaciously and potently stimulated the formation of cAMP”. Besides, in assay [1], the pKi is 8.70.
